From patent US6046329A, “Uracil derivatives” (Byk Gulden Lomberg Chemische Fabrik GmbH, priority 1994, dated 2000)

Key:
[1] = biological target: T1, α1A receptor (Rattus norvegicus, UniProt P43140); assay: Radioligand binding with [3H]prazosine, affinity for α1A receptor subtype; conditions: membranes from rat brain cortex, IC50 corrected according to Cheng and Prusoff, read-out: Receptor affinity α1A, expressed in pKI values (converted)
T1 construct: membranes from rat brain cortex; from tissue; host or cells: rat brain cortex membranes
T1 sequence (P43140 1-466): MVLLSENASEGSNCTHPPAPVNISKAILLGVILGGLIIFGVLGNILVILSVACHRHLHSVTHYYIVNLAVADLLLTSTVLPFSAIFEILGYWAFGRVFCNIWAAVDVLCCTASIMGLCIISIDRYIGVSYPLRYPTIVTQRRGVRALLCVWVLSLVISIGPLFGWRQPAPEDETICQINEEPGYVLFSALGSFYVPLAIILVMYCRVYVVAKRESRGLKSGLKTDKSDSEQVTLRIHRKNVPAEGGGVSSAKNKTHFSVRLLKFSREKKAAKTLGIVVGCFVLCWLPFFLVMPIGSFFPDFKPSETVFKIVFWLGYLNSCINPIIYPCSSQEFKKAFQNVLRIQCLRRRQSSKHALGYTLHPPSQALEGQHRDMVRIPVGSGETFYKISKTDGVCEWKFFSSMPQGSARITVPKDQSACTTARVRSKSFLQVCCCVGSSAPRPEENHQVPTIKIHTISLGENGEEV
Procedure: (§1) The affinity of substances for α1 receptor subtypes was determined in radioligand binding studies using [^3 H]prazosine as a radioligand. 50-200 μg of membranes from rat brain cortex were incubated in a total volume of 0.5-1 ml with [^3 H]prazosine (0.2 to 0.5 nmol/l) in the presence of rising concentrations of substances. The incubation buffer used was 50 mmol/l tris/HCl pH 7.5, 1 mmol/l EDTA, 0.1 mmol/l PMSF. The nonspecific binding was determined in separate batches in the presence of 10 μmol/l of phentolamine or 1 μmol/l of prazosine. After 1 h at 37° C., the bound radioactivity was separated from the free radioactivity by rapid filtration of the incubation batch at 0° C. through glass fiber filters. The filters were washed twice with 3.5 ml each of cold filtration buffer (50 mmol/l tris/HCl pH 7.4, 10 mmol/l MgCl2, 10% polyethylene glycol 6000). The filter-bound radioactivity was determined by liquid scintillation counting. Substances with subtype selectivity for the α1 receptor subtypes were tested again in the presence of 3 nmol/l of WB 4101. WB4101 blocks the binding of [^3 H]prazosine to the α1A receptor subtype and the remaining binding corresponds to that to the α1B receptor.
(§2) For each substance, dose-response curves were plotted by means of nonlinear regression using the Inplot program (GraphPad, Sorento, Calif., USA). IC50 values were corrected by the concentration of the radioligand employed according to the formula of Cheng and Prusoff. The resulting KI values (see following table) represent the affinity of the respective substance for the tested receptor. The compounds according to the invention investigated according to the model illustrated in greater detail above have been provided in the following table with numbers which correspond to the numbers of these compounds in the examples.

[2] = biological target: T2, α1B receptor (Rattus norvegicus, UniProt P15823); assay: Radioligand binding with [3H]prazosine (in the presence of WB 4101), affinity for α1B receptor subtype; conditions: membranes from rat brain cortex, subtype-selective substances tested again in the presence of 3 nmol/l WB 4101, Cheng and Prusoff, read-out: Receptor affinity α1B, expressed in pKI values (converted)
T2 construct: membranes from rat brain cortex; from tissue; host or cells: rat brain cortex membranes
T2 sequence (P15823 1-515): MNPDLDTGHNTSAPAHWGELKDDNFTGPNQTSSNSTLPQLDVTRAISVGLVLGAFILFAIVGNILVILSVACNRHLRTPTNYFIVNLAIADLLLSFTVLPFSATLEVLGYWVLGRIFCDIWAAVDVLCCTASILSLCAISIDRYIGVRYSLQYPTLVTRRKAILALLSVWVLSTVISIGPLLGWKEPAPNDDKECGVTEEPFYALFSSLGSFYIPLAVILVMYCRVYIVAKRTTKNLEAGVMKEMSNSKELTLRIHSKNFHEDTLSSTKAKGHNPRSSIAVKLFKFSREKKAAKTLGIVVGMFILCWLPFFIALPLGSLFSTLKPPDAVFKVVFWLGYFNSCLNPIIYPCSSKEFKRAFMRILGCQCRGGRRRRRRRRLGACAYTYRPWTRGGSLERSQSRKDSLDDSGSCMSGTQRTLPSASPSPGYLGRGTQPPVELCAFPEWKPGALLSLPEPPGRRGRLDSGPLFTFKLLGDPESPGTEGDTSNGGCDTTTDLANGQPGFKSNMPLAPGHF
Procedure: as §1, §2

[3] = biological target: T3, 5-HT1A receptor (Sus scrofa, UniProt A0A4X1UTF5); assay: Radioligand binding with [3H]8-OH-DPAT, affinity for 5-HT1A receptor; conditions: membranes from pig brain cortex, IC50 corrected according to Cheng and Prusoff, read-out: Receptor affinity 5-HT1A, expressed in pKI values (converted)
T3 construct: membranes from pig brain cortex; from tissue; host or cells: pig brain cortex membranes
T3 sequence (A0A4X1UTF5 1-422): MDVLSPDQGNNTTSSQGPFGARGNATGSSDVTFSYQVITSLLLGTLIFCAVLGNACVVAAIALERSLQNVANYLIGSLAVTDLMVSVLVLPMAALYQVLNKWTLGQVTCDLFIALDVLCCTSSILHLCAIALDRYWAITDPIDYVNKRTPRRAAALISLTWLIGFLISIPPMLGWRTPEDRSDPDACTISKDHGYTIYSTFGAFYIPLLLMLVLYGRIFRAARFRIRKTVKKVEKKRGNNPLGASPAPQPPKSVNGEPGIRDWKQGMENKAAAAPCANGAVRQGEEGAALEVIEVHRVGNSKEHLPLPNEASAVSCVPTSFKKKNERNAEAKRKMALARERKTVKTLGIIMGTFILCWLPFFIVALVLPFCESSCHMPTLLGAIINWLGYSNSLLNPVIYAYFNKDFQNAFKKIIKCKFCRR
Procedure: The affinity of substances for the 5-HT1A receptor was determined in radioligand binding studies using [^3 H]8-OH-DPAT as a radioligand. 50-150 μg of membranes from pig brain cortex were incubated in a total volume of 0.25-0.5 ml with [^3 H]8-OH-DPAT (0.2 to 0.4 nmol/l) in the presence of rising concentrations of substances. The incubation buffer used was 50 mmol/l tris/HCl pH 8.2, 1 mmol/l MnCl2. The nonspecific binding was determined in separate batches in the presence of 10 μmol/l of 5-HT. After 30 min at 23° C., the bound radioactivity was separated from the free radioactivity by rapid filtration of the incubation batch at 0° C. through glass fiber filters. The filters were washed twice with 3.5 ml each of cold filtration buffer (50 mmol/l tris/HCl pH 7.4, 10 mmol/l MgCl2, 10% polyethylene glycol 6000). The filter-bound radioactivity was determined by liquid scintillation counting.
as §2

Row | SMILES | Ki [1] | Ki [2] | Ki [3]
1 | COc1ccccc1N1CCN(CCCNc2c(OC)c(=O)n(C)c(=O)n2C)CC1 [Compound 17] | 50.1 nM | 50.1 nM | 2.51 nM
2 | COc1ccccc1N1CCN(CCCNC2=CC(=O)N(C)S(=O)(=O)N2C)CC1 [Compound 18, 5-{3-[4-(2-Methoxyphenyl)piperazin-1-yl]-propylamino}-2,6-dimethyl-1,1-dioxo-6H-[1,2,6]thiadiazin-3-one] | 6.31 nM | 126 nM | 15.8 nM
3 | COc1ccccc1N1CCN(CCCNc2cc(=S)n(C)c(=O)n2C)CC1 [Compound 19, 6-{3-[4-(2-Methoxyphenyl)piperazin-1-yl]-propylamino}-1,3-dimethyl-4-thioxo-3,4-dihydro-1H-pyrimidin-2-one] | 31.6 nM | 31.6 nM | 10 nM
4 | COc1cc(N)ccc1N1CCN(CCCNc2c(C)c(=O)n(C)c(=O)n2C)CC1 [Compound 20, 1,3,5-Trimethyl-6-[[3-[4-(4-amino-2-methoxyphenyl)-1-piperazinyl]propyl]amino]-2,4(1H,3H)-pyrimidinedione] | 100 nM | 6310 nM | 2 nM
5 | COc1cc(NC(C)=O)ccc1N1CCN(CCCNc2c(C)c(=O)n(C)c(=O)n2C)CC1 [Compound 21, 1,3,5-Trimethyl-6-[[3-[4-(4-acetylamino-2-methoxyphenyl)-1-piperazinyl]propyl]amino]-2,4(1H,3H)pyrimidinedione] | > 10000 nM | > 10000 nM | 5.01 nM
